Assay results taken from the NIST ThermoML archive (doi:10.1021/je700428f).

Test: xn = mol fraction of the nth substance listed
Conditions: 101 kPa, Liquid; for viscosity: Capillary tube (Ostwald / Ubbelohde) method

COC(C)(C)C [2-methoxy-2-methylpropane] + CCCCCCCCCC
Conditions | mass density [kg/m3] | viscosity [mPa·s]
308.15 K, x1 = 0.5005 | 719.62 | –
308.15 K, x1 = 0.6066 | 720.2 | –
308.15 K, x1 = 0.6866 | 720.81 | –
308.15 K, x1 = 0.7973 | 721.85 | –
308.15 K, x1 = 0.8999 | 723.26 | –
308.15 K, x1 = 1 | 724.82 | –
313.15 K, x1 = 0.1016 | – | 0.654
313.15 K, x1 = 0.1019 | 714.7 | –
313.15 K, x1 = 0.2002 | – | 0.614
313.15 K, x1 = 0.2041 | 714.74 | –
313.15 K, x1 = 0.3003 | – | 0.572
313.15 K, x1 = 0.3077 | 714.88 | –
313.15 K, x1 = 0.3999 | 715.03 | –
313.15 K, x1 = 0.4013 | – | 0.531
313.15 K, x1 = 0.4992 | – | 0.491
313.15 K, x1 = 0.5005 | 715.3 | –
313.15 K, x1 = 0.6005 | – | 0.449
313.15 K, x1 = 0.6066 | 715.7 | –
313.15 K, x1 = 0.6866 | 716.18 | –
313.15 K, x1 = 0.7 | – | 0.404
313.15 K, x1 = 0.7973 | 717 | –
313.15 K, x1 = 0.8005 | – | 0.362
313.15 K, x1 = 0.8999 | 718.16 | –
313.15 K, x1 = 1 | 719.42 | –
318.15 K, x1 = 0.1016 | – | 0.614
318.15 K, x1 = 0.1019 | 710.81 | –
318.15 K, x1 = 0.2002 | – | 0.579
318.15 K, x1 = 0.2041 | 710.74 | –
318.15 K, x1 = 0.3003 | – | 0.54
318.15 K, x1 = 0.3077 | 710.78 | –
318.15 K, x1 = 0.3999 | 710.82 | –
318.15 K, x1 = 0.4013 | – | 0.503
318.15 K, x1 = 0.4992 | – | 0.462
318.15 K, x1 = 0.5005 | 710.97 | –
318.15 K, x1 = 0.6005 | – | 0.426
318.15 K, x1 = 0.6066 | 711.2 | –
318.15 K, x1 = 0.6866 | 711.53 | –
318.15 K, x1 = 0.7 | – | 0.383
318.15 K, x1 = 0.7973 | 712.1 | –
318.15 K, x1 = 0.8999 | 713.01 | –
318.15 K, x1 = 1 | 713.96 | –
323.15 K, x1 = 0.1016 | – | 0.577
323.15 K, x1 = 0.1019 | 706.89 | –
323.15 K, x1 = 0.2002 | – | 0.546
323.15 K, x1 = 0.2041 | 706.73 | –
323.15 K, x1 = 0.3003 | – | 0.51
323.15 K, x1 = 0.3077 | 706.65 | –
323.15 K, x1 = 0.3999 | 706.59 | –
323.15 K, x1 = 0.4013 | – | 0.476
323.15 K, x1 = 0.4992 | – | 0.441
323.15 K, x1 = 0.5005 | 706.6 | –
323.15 K, x1 = 0.6005 | – | 0.406
323.15 K, x1 = 0.6066 | 706.67 | –
323.15 K, x1 = 0.6866 | 706.84 | –
323.15 K, x1 = 0.7 | – | 0.365
323.15 K, x1 = 0.7973 | 707.18 | –
323.15 K, x1 = 0.8999 | 707.81 | –
328.15 K, x1 = 0.1016 | – | 0.546
328.15 K, x1 = 0.1019 | 702.96 | –
328.15 K, x1 = 0.2002 | – | 0.517
328.15 K, x1 = 0.2041 | 702.7 | –
328.15 K, x1 = 0.3003 | – | 0.483
328.15 K, x1 = 0.3077 | 702.51 | –
328.15 K, x1 = 0.3999 | 702.33 | –
328.15 K, x1 = 0.4013 | – | 0.451
328.15 K, x1 = 0.4992 | – | 0.418
328.15 K, x1 = 0.5005 | 702.22 | –
328.15 K, x1 = 0.6005 | – | 0.386
328.15 K, x1 = 0.6066 | 702.11 | –
328.15 K, x1 = 0.6866 | 702.11 | –
328.15 K, x1 = 0.7 | – | 0.35
328.15 K, x1 = 0.7973 | 702.19 | –
328.15 K, x1 = 0.8999 | 702.55 | –
333.15 K, x1 = 0.1016 | – | 0.514
333.15 K, x1 = 0.1019 | 699 | –
333.15 K, x1 = 0.2002 | – | 0.489
333.15 K, x1 = 0.2041 | 698.64 | –
333.15 K, x1 = 0.3003 | – | 0.459
333.15 K, x1 = 0.3077 | 698.34 | –
333.15 K, x1 = 0.3999 | 698.05 | –
333.15 K, x1 = 0.4013 | – | 0.432
333.15 K, x1 = 0.4992 | – | 0.399
333.15 K, x1 = 0.5005 | 697.78 | –
333.15 K, x1 = 0.6005 | – | 0.371
333.15 K, x1 = 0.6066 | 697.5 | –
333.15 K, x1 = 0.6866 | 697.32 | –
333.15 K, x1 = 0.7973 | 697.15 | –
338.15 K, x1 = 0.1016 | – | 0.489
338.15 K, x1 = 0.1019 | 695.02 | –
338.15 K, x1 = 0.2002 | – | 0.466
338.15 K, x1 = 0.2041 | 694.56 | –
338.15 K, x1 = 0.3003 | – | 0.438
338.15 K, x1 = 0.3077 | 694.14 | –
338.15 K, x1 = 0.3999 | 693.73 | –
338.15 K, x1 = 0.4013 | – | 0.413
338.15 K, x1 = 0.4992 | – | 0.382
338.15 K, x1 = 0.5005 | 693.31 | –
338.15 K, x1 = 0.6005 | – | 0.359
338.15 K, x1 = 0.6066 | 692.86 | –
338.15 K, x1 = 0.6866 | 692.58 | –
338.15 K, x1 = 0.7973 | 692.06 | –
343.15 K, x1 = 0.1016 | – | 0.466
343.15 K, x1 = 0.1019 | 691.02 | –
343.15 K, x1 = 0.2002 | – | 0.445
343.15 K, x1 = 0.2041 | 690.46 | –
343.15 K, x1 = 0.3003 | – | 0.42
343.15 K, x1 = 0.3077 | 689.92 | –
343.15 K, x1 = 0.3999 | 689.38 | –
343.15 K, x1 = 0.4013 | – | 0.398
343.15 K, x1 = 0.4992 | – | 0.369
343.15 K, x1 = 0.5005 | 688.8 | –
343.15 K, x1 = 0.6066 | 688.18 | –
343.15 K, x1 = 0.6866 | 687.71 | –
343.15 K, x1 = 0.7973 | 686.92 | –
348.15 K, x1 = 0.1016 | – | 0.443
348.15 K, x1 = 0.1019 | 687.01 | –
348.15 K, x1 = 0.2002 | – | 0.424
348.15 K, x1 = 0.2041 | 686.34 | –
348.15 K, x1 = 0.3003 | – | 0.402
348.15 K, x1 = 0.3077 | 685.67 | –
348.15 K, x1 = 0.3999 | 685.01 | –
348.15 K, x1 = 0.4013 | – | 0.383
348.15 K, x1 = 0.5005 | 684.26 | –
348.15 K, x1 = 0.6066 | 683.43 | –
353.15 K, x1 = 0.1016 | – | 0.422
353.15 K, x1 = 0.1019 | 682.96 | –
353.15 K, x1 = 0.2002 | – | 0.406
353.15 K, x1 = 0.2041 | 682.18 | –
353.15 K, x1 = 0.3003 | – | 0.386
353.15 K, x1 = 0.3077 | 681.38 | –
353.15 K, x1 = 0.3999 | 680.59 | –
353.15 K, x1 = 0.4013 | – | 0.372
353.15 K, x1 = 0.5005 | 679.69 | –
353.15 K, x1 = 0.6066 | 678.65 | –
358.15 K, x1 = 0.1016 | – | 0.407
358.15 K, x1 = 0.1019 | 678.89 | –
358.15 K, x1 = 0.2002 | – | 0.388
358.15 K, x1 = 0.2041 | 678 | –
358.15 K, x1 = 0.3003 | – | 0.372
358.15 K, x1 = 0.3077 | 677.06 | –
358.15 K, x1 = 0.3999 | 676.14 | –
363.15 K, x1 = 0.1019 | 674.79 | –
363.15 K, x1 = 0.2041 | 673.78 | –
363.15 K, x1 = 0.3077 | 672.71 | –
363.15 K, x1 = 0.3999 | 671.66 | –
